Patent US5258397A, “3-Isoxazoyl derivatives endowed with anticonvulsant activity, procedure for their preparation and their pharmaceutical compositions” (Novapharme, priority 1988, dated 1993)

Legend:
[1] = Determination of the lethal dose 50 (MILLER and TAINTER); settings: in vivo, ip
Protocol: The toxicity is measured by the technique of MILLER and TAINTER by the intraperitoneal route.

SWISS CDl mice [2] = assay: Seizures induced by pentetrazole (anticonvulsant activity); assay type: in vivo; settings: i.p., % protected against clonic seizures; for % protection against Pentetrazole 30 mn.: 1/10 of the LD50, 30 mn before pentetrazole 70 mg/kg s.c.; for % protection against Pentetrazole 4 h: 1/10 of the LD50, 4 hours before pentetrazole 70 mg/kg s.c.
Protocol: (§1) The anticonvulsant activity is measured by the electroshock and pentetrazole tests according to the procedure of A. SWINYARD (ADD PROGRAM OF NINCDS BY H. J. KUPFERBERG. E. A. SWINYARD AND G. D. GLADDING in Advances in Epileptology/XIIth Epilepsy International Symposium edited by M. DAM, L. GRAM and J. K. PENRY-RAVEN press N.Y. 1981). The compounds are always administered (at 1/10 of the LD50) by IP injections into SWISS CDl mice (Charles River) of 20-25 g mean weight. All of the compounds are dissolved in a 0.9% solution of sodium chloride or suspended in a 1% solution of carboxymethyl cellulose or tween.
Seizures induced by pentetrazole. 70 mg/kg of pentetrazole are injected by the subcutaneous route into groups of 10 mice (1 control group and one treated group) in a volume of 0.2 ml/20 g of body weight. The compounds to be tested are administered either 30 mn before pentetrazole or 4 hours before pentetrazole by the intraperitoneal route. The animals are observed for 30 mn. The number of clonic seizures lasting 5 seconds or more and the percentage of the animals protected against clonic seizures are recorded.

SWISS CDl mice [3] = assay: Electroshock test (anticonvulsant activity); assay type: in vivo; settings: i.p., % of animals not extending the hind paws; for % protection against Electro shock 30 min.: 1/10 of the LD50, 30 min before electroshock; for % protection against Electro shock 4 h: 1/10 of the LD50, 4 hours before electroshock
Protocol: as §1
Electroshock test. Groups of 10 mice (1 control group and one treated group) are used for each compound. The treated group receives the compound to be tested by the intraperitoneal route either 30 mn before the electroshock or 4 hours before the electroshock. This latter is applied with the aid of corneal electrodes (50 milliamperes for 0.2 second). Protection is measured by the percentage of animals not extending the hind paws.

mice = assay: Cerebral protective activity: hypoxia induced by the altitude; assay type: in vivo; settings: i.p., 30 min before closed chamber at 210 mm Hg
Protocol: Five mice (20 to 25 g) receive an administration of the compound or the liquid vehicle by the intraperitoneal route 30 min. before being placed in a closed chamber in which the atmospheric pressure is reduced to 210 mm Hg. The time of survival (in seconds) is measured from the induction of hypoxia to the cessation of respiratory movements.

Compound | LD50 ([1]; intraperitoneal route) | % protection against Pentetrazole 30 mn. (SWISS CDl mice [2]) | % protection against Pentetrazole 4 h (SWISS CDl mice [2]) | % protection against Electro shock 30 min. (SWISS CDl mice [3]) | % protection against Electro shock 4 h (SWISS CDl mice [3]) | hypoxia induced by the altitude; increase time of survival as % of controls (mice) | LD50 [1]
CC(=O)n1nc(C(=O)Nc2c(C)cccc2Cl)cc1C [Compound 2, 3-(2-chloro 6-methylphenylcarbamoyl) 1-acetyl 5-methyl pyrazole] | 350 mg/kg | 80% | 0% | 100% | 0% |  | 
Cc1cccc(C)c1C(=O)Nc1cc(C)n(C)n1 [Compound 3, N-(1,5-dimethyl-3-pyrazolyl)2,6-dimethylbenzamide] | 1000 mg/kg | 50% | 0% | 100% | 0% |  | 
Cc1cccc(C)c1NC(=O)c1cc(C)n(C)n1 [Compound 4, 3-(2,6-dimethylphenylcarbamoyl) 1,5-dimethyl pyrazole] | 150 mg/kg | 30% | 10% | 100% | 0% | 60 % of controls | 
Cc1cccc(Cl)c1NC(=O)c1cc(C)n(C)n1 [Compound 5, 3-(2-chloro 6-methylphenylcarbamoyl) 1,5-dimethyl pyrazole] | 500 mg/kg | 40% | 10% | 100% | 10% |  | 
Cc1cccc(C)c1N(C)C(=O)c1cc(C)n(C)n1 [Compound 7] |  | 30% | 0% | 70% | 0% |  | 400 mg/kg
COc1cc(C(=O)Nc2c(C)cccc2C)nn1C [Compound 15, 3-(2,6-dimethylphenylcarbamoyl) 1-methyl 5-methoxy pyrazole] | 400 mg/kg | 0% | 10% | 10% | 0% | 21 % of controls | 
Cc1cc(NC(=O)c2c(C)cccc2C)no1 [Compound 17] |  | 30% | 20% | 100% | 0% |  | 2000 mg/kg
Cc1cccc(C)c1NC(=O)c1cc(COC(=O)c2ccccc2)on1 [Compound 29] |  | 10% | 10% | 70% | 0% |  | 2000 mg/kg
Cc1cccc(C)c1NC(=O)c1cc(CF)on1 [Compound 31, 3-(2,6-dimethylphenylcarbamoyl) 5-fluoromethyl isoxazole] | 375 mg/kg | 0% | 0% | 100% | 0% |  | 
CC(=O)n1nc(C(=O)Nc2c(C)cccc2C)cc1C [Compound 41] |  | 50% | 0% | 100% | 0% |  | 350 mg/kg
